Structures can show the parent of a compound that is named as a salt.
Target: T1, Na^+ /H^+ exchanger of rabbit erythrocytes (Oryctolagus cuniculus, UniProt P23791)
T1 construct: endogenous in cells; host or cells: erythrocytes in blood of cholesterol-fed New Zealand White rabbits (Ivanovas)
Test: Inhibition of the Na^+ /H^+ exchanger of rabbit erythrocytes (amiloride-sensitive Na^+ influx, flame photometry)
Assay type: cell-based, rabbit (New Zealand White)
Conditions: erythrocytes of rabbits fed 2% cholesterol diet for six weeks; pH 7.4, 37° C.; hyperosmolar salt/sucrose medium
Description: Inhibition of the Na^+ /H^+ exchanger of rabbit erythrocytes
New Zealand White rabbits (Ivanovas) received a standard diet containing 2% cholesterol for six weeks in order to activate the Na^+ /H^+ exchange and thus to be able to determine, by flame photometry, the Na^+ influx into the erythrocytes via Na^+ /H^+ exchange. The blood was removed from the aural arteries and rendered incoagulable using 25 IU of potassium heparin. A part of each sample was used for the duplicate determination of the hematocrit by means of centrifugation. Aliquots of in each case 100 μl were used for measuring the initial Na^+ content of the erythrocytes.
In order to determine the amiloride-sensitive sodium influx, 100 μl of each blood sample were in each case incubated, at pH 7.4 and 37° C., in 5 ml of a hyperosmolar salt/sucrose medium (mmol/l: 140 NaCl, 3 KCl, 150 sucrose, 0.1 ouabain, 20 tris(hydroxymethyl)aminomethane). […] The intracellular sodium content was determined by flame photometry.
The net influx of Na^+ was calculated from the difference between the initial sodium values and the sodium content of the erythrocytes following incubation. The amiloride-inhibitable sodium influx was calculated from the difference in the sodium content of the erythrocytes following incubation with and without amiloride 3×10^-4 mol/l. […]

T1 sequence (P23791 whole entry): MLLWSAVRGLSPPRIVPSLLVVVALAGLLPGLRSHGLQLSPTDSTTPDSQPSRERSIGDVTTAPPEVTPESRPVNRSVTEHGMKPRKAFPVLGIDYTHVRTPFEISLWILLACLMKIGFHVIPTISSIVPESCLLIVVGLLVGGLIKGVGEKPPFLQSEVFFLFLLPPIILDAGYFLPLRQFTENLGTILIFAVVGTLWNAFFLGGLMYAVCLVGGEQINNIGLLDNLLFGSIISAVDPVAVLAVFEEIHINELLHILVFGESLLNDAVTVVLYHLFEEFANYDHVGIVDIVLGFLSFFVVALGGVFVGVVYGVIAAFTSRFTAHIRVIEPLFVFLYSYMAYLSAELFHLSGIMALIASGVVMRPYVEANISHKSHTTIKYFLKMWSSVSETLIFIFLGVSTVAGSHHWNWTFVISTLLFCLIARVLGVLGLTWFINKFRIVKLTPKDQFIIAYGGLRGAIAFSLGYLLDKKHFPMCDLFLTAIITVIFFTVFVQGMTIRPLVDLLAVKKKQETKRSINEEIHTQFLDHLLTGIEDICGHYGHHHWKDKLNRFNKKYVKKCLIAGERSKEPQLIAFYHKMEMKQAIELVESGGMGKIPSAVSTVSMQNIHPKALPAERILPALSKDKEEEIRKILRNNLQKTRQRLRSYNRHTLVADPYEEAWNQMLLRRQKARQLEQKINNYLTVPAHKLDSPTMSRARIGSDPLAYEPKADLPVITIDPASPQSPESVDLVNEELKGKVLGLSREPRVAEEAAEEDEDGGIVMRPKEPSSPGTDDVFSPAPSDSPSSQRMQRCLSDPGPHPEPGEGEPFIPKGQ

## NC(N)=NC(=O)OCc1ccc(Oc2cccnc2)c(C(F)(F)F)c1 [Example 1, 4-(3-Pyridyloxy)-3-trifluoromethyl-benzyloxycarbonylguanidine, dihydrochloride]
  IC50: < 1000 nM
